# Read-outs that look alike come from different tables or passages of the source.
# Columns and labels:
# Type in all cases: cell-based
# [1] = test system: vancomycin-resistant Enterococcus spp. (VRE); experiment: Broth microdilution MIC (CLSI), Example 1
# Procedure: Cation adjusted Mueller Hinton Broth (CAMHB) was prepared using 100 mL sterile Mueller Hinton broth (pH adjusted). To each 100 mL volume, 125 μL of calcium stock solution (10 mg Ca^2+ per ml) and 43 μL magnesium stock solution (10 mg Mg^2+ per mL) was aseptically added. Sufficient broth is made up for daily use, with unused portions being stored at 4° C. overnight.
# Potency was described as 1000 mg/g or 100%. The powder was dissolved in 10 mL DMSO and 1 mL volumes were aliquoted into eppendorf tubes and stored at −80° C.
# Serial dilutions were prepared in 96 well plates were set up in a safety cabinet according to methods standard in the art. Briefly: 90 μL of the working antibiotic solution was added to each well in Column 12 of the plate, and mixed well, before 90 μL was transferred to column 11. The solutions were mixed again, and then transferred to the next column as before, continuing the dilutions through to column 3. Mixing the well requires the pick up and expulsion of 90 μL in each well 3-4 times before picking up and transferring the 90 μL to the next well. […] The trays were set up as follows: 2 strains were tested in duplicate in one tray, such that strain 1 was located in rows A to D, strain 2 was located in rows E to H, etc.
# Fresh cultures of bacteria were prepared for testing on sheep blood agar (SBA), and overnight incubation at 37° C. as follows; 2-3 colonies of each strain in 7 mL sterile saline, and the OD600 measured as an indication of the density (approx. […] or 0.5 McFarland Standard). The bacterial suspension was adjusted to a final absorbance of 0.08 to 0.100, using saline to achieve correct density, and as the blank. Within 15 minutes of preparation, the adjusted bacterial suspension with sterile saline 1:20 (1 mL into 19 mL sterile saline) to achieve a final bacterial concentration of 4 to 5×10^6 CFU/mL. The bacterial solution was placed into a sterile trough and 10 μL of bacterial solution added into wells 2 through to 12 on each required row (dilution of 1:10, with final concentration of bacteria in wells=5×10^5 CFU/mL). The tray was sealed and incubated at 37° C. for 18-24 h. The purity of bacterial suspension was confirmed by streaking out 50 μL of the 1:20 dilution onto a SBA plate, which was incubated for 37° C. for 18 h and examined. Viable counts were carried out to ensure that the correct concentration of bacteria and been added to the wells. The diluted bacterial solution (4 to 5×10^6 CFU/mL) was diluted 1:10 downwards by adding 100 μL to 900 μL of sterile saline in sterile tubes, and the serial dilutions continued 1:10 for 5 tubes. 100 μL (4-5 drops) of the 4th and 5th dilutions (tube 4=105 and tube 5=10^6 CFU/ml) was plated around in duplicate on pre-dried PCA agar plates and incubated at 37° C. overnight. The following day the number of colonies on the plates was counted and the average count in 100 μL obtained. The study was multiplied by 10 to obtain a viable bacterial count per mL.
# Minimum inhibitory concentrations (μg/mL) were determined using the broth microdilution method recommended by the Clinical and Laboratory Standards Institute (CLSI) (Methods for Dilution Antimicrobial Susceptibility Tests for Bacteria That Grow Aerobically; Approved Standard—Seventh Edition. CLSI M7-A7, 2006; Performance Standards for Antimicrobial Disk and Dilution Susceptibility Tests for Bacteria Isolated from Animals; Approved Standard—Second Edition. CLSI M31-A2, 2002; Performance Standards for Antimicrobial Susceptibility Testing; CLSI M2-A9, 2006).
# MIC breakpoints were determined by visual assessment and then confirmed using an ELISA plate reader, measuring absorbance levels at 450 nm. Bacterial growth (turbidity) in the wells with antimicrobial was compared with the amount of growth (turbidity) in the growth-control well (containing no antimicrobial).
# [2] = test system: Salmonella arizonae; experiment: Broth microdilution MIC, Example 7; conditions: S. arizonae
# Procedure: Minimum inhibitory concentrations (μg/ml) were determined using the broth microdilution method recommended by the Clinical and Laboratory Standards Institute (CLSI). […] Bacterial growth (turbidity) in the wells with antimicrobial was compared with the amount of growth (turbidity) in the growth-control well (containing no antimicrobial). All isolates were tested in duplicate, if there was a difference of greater than one two-fold dilution in the results, the test was repeated a third time. The purity of the isolates was closely monitored during testing by subculturing the prepared bacterial inoculum onto SBA (sheep blood agar). The MICs of the control strains for the antimicrobial ampicillin were determined for each testing run as an internal quality control. The MIC50, […] and MIC range (minimum and maximum) were calculated for each of the bacterial groups.
# [3] = test system: Staphylococcus pseudintermedius isolates (MSSP and MRSP); experiment: MIC (CLSI), Example 6
# Procedure: Anti-staphylococcal compounds were then tested against all 23 isolates and minimum inhibitory concentrations (MIC) were determined according to standard protocols. After the MICs were determined, the minimum bactericidal concentrations were performed to determine if these compounds are bacteriostatic or bacteriocidal.
# [4] = Staphylococcus pseudintermedius isolates
smiles,measurement,setting,value
CC1(C)S[C@@H]2[C@H](NC(=O)[C@H](N)c3ccccc3)C(=O)N2[C@H]1C(=O)O [Ampicillin],MIC range,"[1]; E. faecalis, 4 isolates",1 µg/mL
same,MIC50,"[1]; E. faecium, 16 isolates",1 µg/mL
same,MIC range,"[1]; E. faecium, 16 isolates",1 µg/mL
same,MIC90,"[1]; E. faecium, 16 isolates, read-out: MIC90",2 µg/mL
same,MIC,"[1]; E. faecium, 16 isolates, read-out: MIC mode",1 µg/mL
same,MIC,"[1]; Enterococcus faecalis strain ATCC 29212, read-out: MIC of control strain (internal quality control)",1 µg/mL
same,MIC90,"[1]; Enterococcus isolates of Table 4, Test 2",2 µg/mL
same,MIC,"[1]; Enterococcus, ATCC 29212 / VRE, Enterococcus spp. ATCC 29212, Test 1, read-out: MIC",1 µg/mL
same,MIC,"[1]; Enterococcus, ATCC 29212 / VRE, Enterococcus spp. ATCC 29212, Test 2, read-out: MIC",1 µg/mL
same,MIC,"[1]; Enterococcus, VRE, 20 isolates, read-out: MIC mode",1 µg/mL
same,MIC,"[1]; Enterococcus, VRE, B09/2021, Test 1, read-out: MIC",1 µg/mL
same,MIC,"[1]; Enterococcus, VRE, B09/2021, Test 2, read-out: MIC",1 µg/mL
same,MIC,"[1]; Enterococcus, VRE, B09/2032, Test 1, read-out: MIC",2 µg/mL
same,MIC,"[1]; Enterococcus, VRE, B09/2032, Test 2, read-out: MIC",2 µg/mL
same,MIC,"[1]; Enterococcus, VRE, B09/2087, Test 1, read-out: MIC",2 µg/mL
same,MIC,"[1]; Enterococcus, VRE, B09/2087, Test 2, read-out: MIC",1 µg/mL
same,MIC,"[1]; Enterococcus, VRE, B09/2088, Test 1, read-out: MIC",1 µg/mL
same,MIC,"[1]; Enterococcus, VRE, B09/2088, Test 2, read-out: MIC",1 µg/mL
same,MIC,"[1]; Enterococcus, VRE, B09/2121, Test 1, read-out: MIC",1 µg/mL
same,MIC,"[1]; Enterococcus, VRE, B09/2121, Test 2, read-out: MIC",1 µg/mL
same,MIC,"[1]; Enterococcus, VRE, B09/2192, Test 1, read-out: MIC",1 µg/mL
same,MIC,"[1]; Enterococcus, VRE, B09/2192, Test 2, read-out: MIC",1 µg/mL
same,MIC,"[1]; Enterococcus, VRE, Enterococcus 008, Test 1, read-out: MIC",1 µg/mL
same,MIC,"[1]; Enterococcus, VRE, Enterococcus 008, Test 2, read-out: MIC",1 µg/mL
same,MIC,"[1]; Enterococcus, VRE, Enterococcus 009, Test 1, read-out: MIC",1 µg/mL
same,MIC,"[1]; Enterococcus, VRE, Enterococcus 009, Test 2, read-out: MIC",1 µg/mL
same,MIC,"[1]; Enterococcus, VRE, Enterococcus 010, Test 1, read-out: MIC",2 µg/mL
same,MIC,"[1]; Enterococcus, VRE, Enterococcus 010, Test 2, read-out: MIC",2 µg/mL
same,MIC,"[1]; Enterococcus, VRE, Enterococcus 011, Test 1, read-out: MIC",1 µg/mL
same,MIC,"[1]; Enterococcus, VRE, Enterococcus 011, Test 2, read-out: MIC",1 µg/mL
same,MIC,"[1]; Enterococcus, VRE, Enterococcus 012, Test 1, read-out: MIC",0.5 µg/mL
same,MIC,"[1]; Enterococcus, VRE, Enterococcus 012, Test 2, read-out: MIC",0.5 µg/mL
same,MIC,"[1]; Enterococcus, VRE, Enterococcus 013, Test 1, read-out: MIC",2 µg/mL
same,MIC,"[1]; Enterococcus, VRE, Enterococcus 013, Test 2, read-out: MIC",2 µg/mL
same,MIC,"[1]; Enterococcus, VRE, Enterococcus 014, Test 1, read-out: MIC",1 µg/mL
same,MIC,"[1]; Enterococcus, VRE, Enterococcus 014, Test 2, read-out: MIC",1 µg/mL
same,MIC,"[1]; Enterococcus, VRE, VRE 001, Test 1, read-out: MIC",0.5 µg/mL
same,MIC,"[1]; Enterococcus, VRE, VRE 001, Test 2, read-out: MIC",0.5 µg/mL
same,MIC,"[1]; Enterococcus, VRE, VRE 002, Test 1, read-out: MIC",1 µg/mL
same,MIC,"[1]; Enterococcus, VRE, VRE 002, Test 2, read-out: MIC",1 µg/mL
same,MIC,"[1]; Enterococcus, VRE, VRE 003, Test 1, read-out: MIC",0.5 µg/mL
same,MIC,"[1]; Enterococcus, VRE, VRE 003, Test 2, read-out: MIC",0.5 µg/mL
same,MIC,"[1]; Enterococcus, VRE, VRE 004, Test 1, read-out: MIC",1 µg/mL
same,MIC,"[1]; Enterococcus, VRE, VRE 004, Test 2, read-out: MIC",1 µg/mL
same,MIC,"[1]; Enterococcus, VRE, VRE 005, Test 1, read-out: MIC",1 µg/mL
same,MIC,"[1]; Enterococcus, VRE, VRE 005, Test 2, read-out: MIC",1 µg/mL
same,MIC,"[1]; Enterococcus, VRE, VRE 006, Test 1, read-out: MIC",1 µg/mL
same,MIC,"[1]; Enterococcus, VRE, VRE 006, Test 2, read-out: MIC",1 µg/mL
same,MIC,"[1]; Enterococcus, VRE, VRE 007, Test 1, read-out: MIC",1 µg/mL
same,MIC,"[1]; Enterococcus, VRE, VRE 007, Test 2, read-out: MIC",1 µg/mL
same,MIC50,"[1]; Enterococcus, VRE, 20 isolates",1 µg/mL
same,MIC90,"[1]; VRE, 20 isolates",2 µg/mL
same,MIC90,"[1]; VRE, Enterococcus isolates of Table 4, Test 1, read-out: MIC90",2 µg/mL
same,MIC,[2]; 2nd,1 µg/mL
same,MIC,"[2]; Salmonella enterica, 1st, read-out: MIC",1 µg/mL
same,MIC50,[3]; [4],32 µg/mL
same,MIC90,[3]; [4],128 µg/mL
same,MIC range,[3]; [4],0.1 to 128 µg/mL
same,MIC,"[3]; Staphylococcus pseudintermedius, Staphylococcus pseudintermedius isolates, read-out: MIC mode",128 µg/mL
same,MIC,"[3]; Staphylococcus pseudintermedius, isolate S5P5, read-out: MIC",16 µg/mL
same,MIC,"[3]; Staphylococcus pseudintermedius, isolate S6P6, read-out: MIC",64 µg/mL
same,MIC,"[3]; Staphylococcus pseudintermedius, isolate S9P9, read-out: MIC",32 µg/mL
same,MIC,"[3]; Staphylococcus pseudintermedius, isolate S10P10, read-out: MIC",64 µg/mL
same,MIC,"[3]; Staphylococcus pseudintermedius, isolate S12P12, read-out: MIC",32 µg/mL
same,MIC,"[3]; Staphylococcus pseudintermedius, isolate S13P13, read-out: MIC",0.25 µg/mL
same,MIC,"[3]; Staphylococcus pseudintermedius, isolate S14P14, read-out: MIC",1 µg/mL
same,MIC,"[3]; Staphylococcus pseudintermedius, isolate S15P15, read-out: MIC",4 µg/mL
same,MIC,"[3]; Staphylococcus pseudintermedius, isolate S16P16, read-out: MIC",0.25 µg/mL
same,MIC,"[3]; Staphylococcus pseudintermedius, isolate S17P17, read-out: MIC",1 µg/mL
same,MIC,"[3]; Staphylococcus pseudintermedius, isolate S18P18, read-out: MIC",4 µg/mL
same,MIC,"[3]; Staphylococcus pseudintermedius, isolate S19P19, read-out: MIC",0.5 µg/mL
same,MIC,"[3]; Staphylococcus pseudintermedius, isolate S20P20, read-out: MIC",4 µg/mL
same,MIC,"[3]; Staphylococcus pseudintermedius, isolate S21P21, read-out: MIC",0.1 µg/mL
same,MIC,"[3]; Staphylococcus pseudintermedius, isolate S22P22, read-out: MIC",8 µg/mL
same,MIC,"[3]; Staphylococcus pseudintermedius, isolate S23P23, read-out: MIC",32 µg/mL
same,MIC,[3]; isolate S1P1,128 µg/mL
same,MIC,[3]; isolate S3P3,128 µg/mL
same,MIC,[3]; isolate S4P4,128 µg/mL
same,MIC,[3]; isolate S7P7,128 µg/mL
same,MIC,[3]; isolate S8P8,128 µg/mL
same,MIC,[3]; isolate S11P11,128 µg/mL

# Reference: patent US10253002B2, “Compounds and methods of treating infections” (Neoculi Pty Ltd., priority 2013, dated 2019)
